# Results taken from patent publication US11427567B2, “Imidazolyl pyrimidinylamine compounds as CDK2 inhibitors” (Incyte Corporation, priority 2019, dated 2022).
# Target: CDK2/Cyclin E1 (Homo sapiens (Human), UniProt P24941)
# Test: CDK2/Cyclin E1 HTRF enzyme activity assay (Example A)
# Type: biochemical
# Details: 1 mM ATP
# Procedure: Assays were conducted in white 384-well polystyrene plates in a final reaction volume of 8 μL. […] HTRF signals were read after 1 hour at room temperature on a PHERAstar FS plate reader (BMG Labtech). Data was analyzed with IDBS XLFit and GraphPad Prism 5.0 software using a three or four parameter dose response curve to determine IC50 for each compound.
row,Compound,IC50 [nM]
1,"CS(=O)(=O)N1CCC(Nc2ncc(C(F)(F)F)c(-c3cn(-c4cccc(CCN5CCOCC5)c4Cl)cn3)n2)CC1 [Example 369, 4-(1-(2-Chloro-3-(2-morpholinoethyl)phenyl)-1H-imidazol-4-yl)-N-(1-(methylsulfonyl)piperidin-4-yl)-5-(trifluoromethyl)pyrimidin-2-amine]",≤ 50
2,"CN(C)CCc1cccc(-n2cnc(-c3nc(NC4CCN(S(C)(=O)=O)CC4)ncc3C(F)(F)F)c2)c1Cl [Example 370, 4-(1-(2-Chloro-3-(2-(dimethylamino)ethyl)phe-nyl)-1H-imidazol-4-yl)-N-(1-(methylsulfonyl)piperidin-4-yl)-5-(trifluoromethyl)pyrimi-din-2-amine]",≤ 50
3,"CS(=O)(=O)N1CCC(Nc2ncc(C(F)(F)F)c(-c3cn(-c4cccc(CCNC5CC5)c4Cl)cn3)n2)CC1 [Example 371, 4-(1-(2-Chloro-3-(2-(cyclopropylamino)eth-yl)phenyl)-1H-imidazol-4-yl)-N-(1-(methylsulfonyl)piperidin-4-yl)-5-(trifluoromethyl)pyrimi-din-2-amine]",≤ 50
4,"CC1(O)CN(CCc2cccc(-n3cnc(-c4nc(NC5CCN(S(C)(=O)=O)CC5)ncc4C(F)(F)F)c3)c2Cl)C1 [Example 372, 1-(2-Chloro-3-(4-(2-((1-(methylsulfonyl)piperidin-4-yl)amino)-5-(trifluoromethyl)pyrimi-din-4-yl)-1H-imidazol-1-yl)phenethyl)-3-methylazetidin-3-ol]",≤ 50
5,"CS(=O)(=O)N1CCC(Nc2ncc(C(F)(F)F)c(-c3cn(-c4cccc(CCN5CCC5)c4Cl)cn3)n2)CC1 [Example 373, 4-(1-(3-(2-(Azetidin-1-yl)ethyl)-2-chlorophenyl)-1H-imidazol-4-yl)-N-(1-(methylsulfonyl)piperidin-4-yl)-5-(trifluoromethyl)pyrimi-din-2-amine]",≤ 50
6,"C[C@@]1(O)CCN(CCc2cccc(-n3cnc(-c4nc(NC5CCN(S(C)(=O)=O)CC5)ncc4C(F)(F)F)c3)c2Cl)C1 [Example 374, (R)-1-(2-Chloro-3-(4-(2-((1-(methylsulfonyl)piperidin-4-yl)amino)-5-(trifluoromethyl)pyrimi-din-4-yl)-1H-imidazol-1-yl)phenethyl)-3-methylpyrrolidin-3-ol]",≤ 50
7,"CCNC(C)c1cccc(-n2cnc(-c3nc(NC4CCN(S(C)(=O)=O)CC4)ncc3C(F)(F)F)c2)c1Cl (centres unmarked) [Example 375, 4-(1-(2-Chloro-3-(1-(ethylamino)ethyl)phenyl)-1H-imidazol-4-yl)-N-(1-(methylsulfonyl)piperidin-4-yl)-5-(trifluoromethyl)pyrimidin-2-amine]",≤ 50
8,"CC(c1cccc(-n2cnc(-c3nc(NC4CCN(S(C)(=O)=O)CC4)ncc3C(F)(F)F)c2)c1Cl)N(C)C (centres unmarked) [Example 376, 4-(1-(2-Chloro-3-(1-(dimethylamino)ethyl)phe-nyl)-1H-imidazol-4-yl)-N-(1-(methylsulfonyl)piperidin-4-yl)-5-(trifluoromethyl)pyrimi-din-2-amine]",≤ 50
9,"CNC(C)c1cccc(-n2cnc(-c3nc(NC4CCN(S(C)(=O)=O)CC4)ncc3C(F)(F)F)c2)c1Cl (centres unmarked) [Example 377, 4-(1-(2-Chloro-3-(1-(methylamino)ethyl)phe-nyl)-1H-imidazol-4-yl)-N-(1-(methylsulfonyl)piperidin-4-yl)-5-(trifluoromethyl)pyrimi-din-2-amine]",≤ 50
10,"CNCc1cccc(-n2cnc(-c3nc(NC4CCN(S(C)(=O)=O)CC4)ncc3C(F)(F)F)c2)c1C(F)(F)F [Example 378, 4-(1-(3-((Methylamino)methyl)-2-(trifluoromethyl)phenyl)-1H-imidazol-4-yl)-N-(1-(methylsulfonyl)piperidin-4-yl)-5-(trifluoromethyl)pyrimidin-2-amine]",≤ 50
11,"CC1(O)CN(Cc2cccc(-n3cnc(-c4nc(NC5CCN(S(C)(=O)=O)CC5)ncc4C(F)(F)F)c3)c2C(F)(F)F)C1 [Example 379, 3-Methyl-1-(3-(4-(2-((1-(methylsulfonyl)piperidin-4-yl)amino)-5-(trifluoromethyl)pyrimi-din-4-yl)-1H-imidazol-1-yl)-2-(trifluoromethyl)benzyl) azetidin-3-ol]",≤ 50
